Measurements taken from the Deep4Chem optical property database.
Each block holds one molecule with its values, some of them ahead of it.

Experiment: solvent given as SMILES

emission maximum (in ClCCl): 687 nm
SMILES: CCOC(=O)COc1ccc(/C=C/C2=C3C(C)=CC(C)=[N+]3[B-](F)(F)n3c2c2ccccc2c3-c2[nH]c(C)cc2C)cc1

emission maximum (in C1CCOC1): 613 nm
SMILES: F[B-]1(F)n2c(c(-c3ccccc3)c(-c3ccccc3)c2-c2ccccc2)C(c2ccccc2)=C2C(c3ccccc3)=C(c3ccccc3)C(c3ccccc3)=[N+]21

emission maximum (in ClCCl): 429 nm
SMILES: CN(C)c1ccc(-c2cc(-c3ccc(N(C)C)cc3)ncn2)cc1

emission maximum (in ClC(Cl)Cl): 528 nm
SMILES: C(#Cc1ccccc1)C(C#Cc1ccccc1)=Cc1ccc(C=C(C#Cc2ccccc2)C#Cc2ccccc2)s1

emission maximum (in ClC(Cl)Cl): 424 nm
SMILES: c1ccc2c(c1)-c1c(cc3ccc4cccc5ccc1c3c45)C21c2cc(-c3ccc4ccc5cccc6ccc3c4c56)ccc2-c2ccc(-c3ccc4ccc5cccc6ccc3c4c56)cc21

emission maximum (in CC#N): 504 nm
SMILES: C[n+]1cc2ccc3c[n+](C)c4ccccc4c3c2c2ccccc21

emission maximum (in C1CCCCC1): 436 nm
emission maximum (in C1CCOC1): 446 nm
emission maximum (in CC#N): 449 nm
emission maximum (in ClC(Cl)Cl): 443 nm
emission maximum (in c1ccccc1): 444 nm
SMILES: Cc1cc(C)c(B(c2c(C)cc(C)cc2C)c2cc3ccc4ccccc4c3c3c2ccc2ccccc23)c(C)c1

emission maximum (in CC#N): 367 nm
SMILES: Clc1ccc(-c2nc3ccccc3n2-c2ccccc2)cc1

emission maximum (in C1CCOC1): 508.44 nm
SMILES: CCN(CC)c1ccc(-c2nc3c4ccccc4n(C)c3nc2-c2ccc([B-](F)(c3c(C)cc(C)cc3C)c3c(C)cc(C)cc3C)cc2)cc1

emission maximum (in CC#N): 477 nm
SMILES: CN(C)c1ccc(-c2nc3nccnc3n2-c2ccccc2)cc1

emission maximum (in ClCCl): 390 nm
SMILES: C[Si]1(C)C(c2ccccc2)=Cc2ccccc21

emission maximum (in C1CCOC1): 392 nm
SMILES: Cc1sc(-c2ccc(-c3nc(-c4ccccc4)c(-c4ccccc4)[nH]3)cc2)c(C)c1C1=C(c2c(C)n(C)c3ccccc23)C(F)(F)C(F)(F)C1(F)F

emission maximum (in C1CCOC1): 432 nm
SMILES: COc1ccc(-n2c(-c3ccc(-c4cncc5ccccc45)cc3)nc(-c3ccccc3)c2-c2ccccc2)cc1

emission maximum (in CCCCCC): 387 nm
emission maximum (in CCO): 391 nm
emission maximum (in CCOC(C)=O): 391 nm
emission maximum (in ClCCl): 395 nm
SMILES: Cc1ccc(C#Cc2ccc3ccc4cccc5ccc2c3c45)cc1

emission maximum (in ClC(Cl)Cl): 729 nm
SMILES: Cc1ccc(/C2=c3\cc/c(o3)=C(\c3ccc(C)cc3)c3ccc([nH]3)-c3ccc4n3[B-](F)(F)[N+]3=C(C=CC3=C4c3ccc[nH]3)c3ccc2[nH]3)cc1

emission maximum (in ClCCl): 515 nm
SMILES: COc1ccc(/C=C/C2=C3CCc4ccccc4C3=[O+][B-](F)(F)O2)cc1

emission maximum (in ClCCl): 440 nm
SMILES: CCOC(=O)c1c(-c2cc3c(ccc4ccccc43)oc2=O)nn(-c2cccc(C)c2)c1C(=O)OCC

emission maximum (in ClCCl): 435 nm
SMILES: CC(C)c1cccc(C(C)C)c1N1C(=O)c2cccc3c(Oc4ccc(C(C)(C)c5ccccc5)cc4)ccc(c23)C1=O

emission maximum (in ClCCl): 783 nm
SMILES: Cc1c2cc3c(-c4ccccc4)c4c(c(-c5ccccc5)c3cc2c2n1[B-](F)(F)[n+]1c(C)c3cc5c(-c6ccccc6)c6c7cccc8cccc(c6c(-c6ccccc6)c5cc3c1=C2c1ccccc1)c87)-c1cccc2cccc-4c12

emission maximum (in ClCCl): 449 nm
emission maximum (in c1cc(-n2c3ccccc3c3ccccc32)cc(-n2c3ccccc3c3ccccc32)c1): 434 nm
SMILES: CC(C)(C)c1ccc2c(c1)c1cc(C(C)(C)C)ccc1n2-c1ccc(-c2ccc3c(c2)C2(c4cc(-c5ccc(-n6c7ccc(C(C)(C)C)cc7c7cc(C(C)(C)C)ccc76)cc5)ccc4-3)c3ccccc3S(=O)(=O)c3ccccc32)cc1

emission maximum (in C1CCCCC1): 389 nm
SMILES: COc1ccc2c3c(c4ccc(OC)cc4c2c1)C1(c2ccccc2-c2ccccc21)c1ccccc1-3

More lines, now with the values behind:

SMILES: c1ccc(-c2cc(-c3ccc(N4c5ccccc5C(c5ccccc5)(c5ccccc5)c5ccccc54)cc3)nc(-c3ccccc3)n2)cc1
emission maximum (in Cc1ccccc1): 450 nm
emission maximum (in O=P(c1ccccc1)(c1ccccc1)c1ccccc1Oc1ccccc1P(=O)(c1ccccc1)c1ccccc1): 464 nm

SMILES: CC(=O)OC[C@@H]1O[C@H](N2C=CC3=Nc4nc(C)[n+](C)cc4CN3C2=O)[C@@H](O)[C@H]1O
emission maximum (in CC#N): 416 nm
emission maximum (in CCO): 418 nm
emission maximum (in O): 414 nm

SMILES: CCC1(CC)c2cc(/C=C/c3ccc(N(c4ccccc4)c4ccccc4)cc3)ccc2-c2ccc(/C=C/c3ccc(N(c4ccccc4)c4ccccc4)cc3)cc21
emission maximum (in Cc1ccccc1): 451 nm

SMILES: CCOC(=O)CC[N+]1=c2cc3c(cc2CCC1)=Cc1c(c2cc4c5c(c2oc1=O)CCCN5CCC4)O3
emission maximum (in CC#N): 687 nm
emission maximum (in CO): 681 nm
emission maximum (in ClCCl): 676 nm
emission maximum (in O): 688 nm

SMILES: Cc1ccc(C)n1-c1ccc(N(C)C)cc1
emission maximum (in CC#N): 360 nm
emission maximum (in CCCCCC): 347 nm

SMILES: O=C1CC(=O)Nc2cc([N+](=O)[O-])ccc2N1
emission maximum (in CS(C)=O): 403 nm

SMILES: CC1=[N+]2C(=C(c3c4ccccc4c(-c4ccccc4)c4ccccc34)c3ccc(C)n3[B-]2(F)F)C=C1
emission maximum (in CC#N): 536 nm
emission maximum (in CCCCCC): 527 nm
emission maximum (in CCO): 528 nm
emission maximum (in CN(C)C=O): 533 nm
emission maximum (in Cc1ccccc1): 532 nm
emission maximum (in ClCCl): 533 nm

SMILES: Cc1ccc2c(c1)C1(c3ccccc3-c3ccccc31)c1cc(C)ccc1N2c1ccc2c(c1)Sc1ccccc1P2(=O)c1ccccc1 (centres undefined)
emission maximum (in Cc1ccccc1): 454.61 nm

SMILES: CCCCN1C(=O)c2ccc3c4ccc5c6c(cc(Br)c(c7ccc(c2c37)C1=O)c64)C(=O)N(CCCC)C5=O
emission maximum (in ClCCl): 540 nm

SMILES: COc1cc2c(cc1-c1ccc(C=O)cc1)Cc1c3c(c4c(c1-2)-c1cc(OC)c(-c2ccc(C=O)cc2)cc1C4)C(=O)N(CCC(C)C)C3=O
emission maximum (in C1CCOC1): 462 nm

SMILES: CCCCCCCCCCOC(=O)c1ccc2c3ccc(C(=O)OCCCCCCCCCC)c4c(C(=O)OCCCCCCCCCC)cc5[nH]c6cc(C(=O)OCCCCCCCCCC)c1c2c6c5c43
emission maximum (in C1CCOC1): 493 nm

SMILES: CC1=CC(C)=[N+]2C1=C(c1ccc(-c3c4ccccc4c(-c4ccccc4)c4ccccc34)cc1)c1c(C)cc(C)n1[B-]2(F)F
emission maximum (in CC#N): 508 nm
emission maximum (in CCCCCC): 511 nm
emission maximum (in CCO): 510 nm
emission maximum (in CN(C)C=O): 510 nm
emission maximum (in Cc1ccccc1): 515 nm
emission maximum (in ClCCl): 512 nm

SMILES: Cc1c2oc3c(C)c(N)cc(C(=O)NC4OC(=O)C(C(C)C)N(C)C(=O)CN(C)C(=O)C5CCCN5C(=O)C(C(C)C)NC4=O)c3nc-2c(C(=O)NC2OC(=O)C(C(C)C)N(C)C(=O)CN(C)C(=O)C3CCCN3C(=O)C(C(C)C)NC2=O)c(N)c1=O (centres undefined)
emission maximum (in C1CCOC1): 608.36 nm
emission maximum (in CC#N): 634.41 nm
emission maximum (in CC(=O)O): 638.86 nm
emission maximum (in CC(C)=O): 609.72 nm
emission maximum (in CCCCO): 669.51 nm
emission maximum (in CCCCOC(C)=O): 624.05 nm
emission maximum (in CCCO): 658.62 nm
emission maximum (in CCN(CC)CC): 597.77 nm
emission maximum (in CCO): 669 nm
emission maximum (in CCOC(C)=O): 598.75 nm
emission maximum (in CN(C)C=O): 640.78 nm
emission maximum (in CO): 673.84 nm
emission maximum (in CS(C)=O): 637.01 nm
emission maximum (in Cc1ccccc1): 613.07 nm
emission maximum (in ClC(Cl)Cl): 620.11 nm
emission maximum (in ClCCCl): 609.65 nm
emission maximum (in O): 674.17 nm
emission maximum (in O=[N+]([O-])c1ccccc1): 623.24 nm
emission maximum (in c1ccccc1): 621.25 nm
emission maximum (in c1ccncc1): 648.07 nm

SMILES: Cc1cccc2cc3c(=O)n(C)c(=O)n(C)c3nc12
emission maximum (in CC#N): 417 nm
emission maximum (in CC(C)O): 421 nm
emission maximum (in CCO): 423 nm
emission maximum (in CO): 425 nm
emission maximum (in ClC(Cl)Cl): 417 nm
emission maximum (in ClCCl): 417 nm

SMILES: COC(=O)c1nc2c(N(C)C)nc(N)nc2n1Cc1ccccc1
emission maximum (in C1COCCO1): 391 nm
emission maximum (in CC#N): 399 nm
emission maximum (in CO): 420 nm
emission maximum (in ClCCl): 393 nm

SMILES: C[Si]1(C)c2ccccc2-c2ccccc21
emission maximum (in ClCCl): 359 nm

SMILES: CN(C)c1ccc(/C=C/c2cc(/C=C/c3ccc(N(C)C)cc3)nc(/C=C/c3ccc(N(c4ccccc4)c4ccccc4)cc3)n2)cc1
emission maximum (in C1CCOC1): 521 nm
emission maximum (in CC#N): 584 nm
emission maximum (in CC(C)=O): 561 nm
emission maximum (in CCCCCCC): 451 nm
emission maximum (in CS(C)=O): 596 nm
emission maximum (in Cc1ccccc1): 480 nm
emission maximum (in ClCCl): 533 nm

SMILES: c1ccc2c(c1)CCc1ccccc1N2
emission maximum (in CC#N): 354 nm
emission maximum (in CCCCCC): 329 nm
emission maximum (in CO): 359 nm

SMILES: CC[N+]1(CC)CN2C(=N1)C(C(=O)O)=Cc1cc(Oc3ccccc3)ccc12
emission maximum (in O): 485 nm

SMILES: CCCCCCCCCC1(CCCCCCCCC)c2cc(C#Cc3ccc(C#Cc4ccc(N(CCCCCC)CCCCCC)cc4)cc3)ccc2-c2ccc(C#Cc3ccc(C#Cc4ccc(N(CCCCCC)CCCCCC)cc4)cc3)cc21
emission maximum (in Cc1ccccc1): 433 nm

SMILES: CCCCCC(=O)c1c2c(c(C(=O)CCCCC)c3c1OC1(CCCC1)O3)OC1(CCCC1)O2
emission maximum (in CC#N): 561 nm
emission maximum (in CCCCCC): 525 nm
emission maximum (in CCO): 596 nm
emission maximum (in CO): 611 nm
emission maximum (in ClCCl): 561 nm

SMILES: CNc1cccc2c1C(=O)c1ccccc1C2=O
emission maximum (in C1CCC2CCCCC2C1): 565 nm
emission maximum (in C1CCCCC1): 563 nm
emission maximum (in CC1CCCCC1): 565 nm
emission maximum (in CC#N): 617 nm
emission maximum (in CCC(C)CC): 562 nm
emission maximum (in CCCCCC): 560 nm
emission maximum (in CCOC(C)=O): 600 nm

SMILES: CC[N+](CC)=c1ccc2cc3oc4cc(N)ccc4c3oc-2c1
emission maximum (in CCO): 629 nm
emission maximum (in ClCCl): 623 nm
emission maximum (in O): 627 nm

SMILES: CCN(CC)c1ccc(/C=C/C2=[O+][B-](F)(F)Oc3c2c(=O)oc2cc(N(CC)CC)ccc32)cc1
emission maximum (in C1CCCCC1): 556 nm
emission maximum (in C1COCCO1): 610 nm
emission maximum (in CC#N): 644 nm
emission maximum (in CC(C)=O): 636 nm
emission maximum (in CCO): 635 nm
emission maximum (in CCOC(C)=O): 617 nm
emission maximum (in CO): 637 nm
emission maximum (in CS(C)=O): 659 nm
emission maximum (in Cc1ccccc1): 597 nm
emission maximum (in ClC(Cl)Cl): 622 nm
emission maximum (in ClCCl): 634 nm
emission maximum (in OCC(O)CO): 654 nm
emission maximum (in OCCO): 653 nm

SMILES: COC(=O)/C=C/C1=CC2=C(c3c(C)cc(C)cc3C)c3cccn3[B-](F)(F)[N+]2=C1
emission maximum (in ClCCl): 570 nm

SMILES: Cc1cc(-n2c3ccccc3c3cc(C#N)ccc32)ccc1-c1ccc(S(=O)(=O)c2ccccc2)cc1C
emission maximum (in C1CCOC1): 369.19 nm
emission maximum (in CC#N): 369.19 nm
emission maximum (in Cc1ccccc1): 352 nm
emission maximum (in ClCCl): 369.19 nm
